Assays:
BRD4 (I) = BRD4 (I) (Homo sapiens (Human), UniProt O60885); assay: Fluorescence anisotropy (FA) binding test on BRD4 (I); conditions: BRD4 (I) 10 nM, fluorescent (+)-JQ1 substrate 5 nM, read-out: BRD4 (1) IC50
Method: The binding activity of the compound to BRD4 (I) was tested using a fluorescence anisotropy (FA) method. The principle of FA test is to calculate and analyze the fluorescence polarization values in the horizontal and vertical directions by detecting the change of molecular weight before and after the interaction of fluorescein-labeled small molecules with other molecules. If the equilibrium of the binding between the fluorescently labeled small molecule and macromolecule is established, it will move slowly when excited, and the measured fluorescence polarization value will increase. If the binding between the fluorescently labeled small molecule and the macromolecule is replaced by another ligand, its rotation or flipping speed in the free state will be faster, and the emitted light will be depolarized relative to the plane of the excitation light, and the measured polarized light value will decrease to calculate the fluorescence anisotropy of the sample.
Expression and purification of the BRD4(I) recognition domain: colonies of newly transformed plasmid DNA from E. coli BL21(DE3)-condon plus-RIL cells were cultivated in 50 mL of Terrific Broth medium containing 50 μg/mL kanamycin and 34 μg/mL chloramphenicol at 37° C. overnight (starting culture). The starting culture was then diluted 100-fold in 1 L of fresh TB medium and the cells were grown at 37° C. to an optical density of about 0.8 at OD600 and then the temperature was lowered to 16° C. When the system was equilibrated at 16° C., the optical density at OD600 was approximately 1.2, and protein expression was induced with 0.2 mmol of isopropyl-β-D-thiogalactopyranoside (IPTG) overnight at 16° C. Bacteria were harvested by centrifugation (4000×g, 20 minutes, 4° C.) and stored as a pellet at −80° C. The cells expressing His 6-tagged protein was resuspend in lysis buffer [50 mmol 4-hydroxyethylpiperazineethanesulfonic acid (HEPES), 25° C., pH 7.5, 500 mmol NaCl, 10 mmol imidazole, 5% glycerol and freshly added 0.5 mmol of tris(2-carboxyethyl)phosphine hydrochloride (TCEP) and 1 mmol of phenylmethanesulfonyl fluoride (PMSF)] and lysed at 4° C. using JN 3000PLUS high pressure homogenizer (JNBIO-Guangzhou, China). The lysate was clarified by centrifugation (12,000×g for 1 hour at 4° C.) and applied to a nickel-nitriloacetate agarose column. The column was washed once with 50 mL of wash buffer containing 30 mmol of imidazole. The protein was eluted using imidazole in an elution buffer in a stepwise elution (100-250 mmol imidazole in 50 mmol HEPES, 25° C., pH 7.5, 500 mmol NaCl, 5% glycerol). All fractions were collected and monitored by SDS-polyacrylamide gel electrophoresis (Bio-Rad Criterion TM Precast Gels, 4-12% Bis-Tris, 1.0 mm, from Bio-Rad, CA). After 1 mmol of dithiothreitol (DTT) was added, the eluted proteins were treated with tobacco […] virus (TEV) protease overnight at 4° C. to remove the His6 tag. The protein was concentrated and further purified by size exclusion chromatography on a Superdex 75 16/60 HiLoad gel filtration column. The samples were monitored by SDS-polyacrylamide gel electrophoresis and concentrated to 8-10 mg/mL with gel filtration buffer, 10 mmol Hepes pH 7.5, 500 mM NaCl, 1 mmol DTT, and used for protein binding assays and crystallization.
The fluorogenic substrate was (+)-JQ1 linked to a fluorescent molecule and the working concentration was 5 nM. BRD4 (I) protein had 10 nM of working concentration and the total reaction system was 40 μL. The buffer was 50 mM 4-hydroxyethylpiperazineethanesulfonic acid (HEPES) pH 7.4, 150 mM NaCl, 0.5 mM 3[(3-cholamidopropyl)dimethylammonio]propanesulfonate (CHAPS). […] The final concentration of DMSO was chosen to be 0.2%, taking into account the solubility of the compound and the effect of DMSO on the assay. All measurements were made under these conditions. […]

[1] = system: human myeloma cells MM.1S; assay: MM.1S cell viability, CCK-8 method; format: cell-based; conditions: for IC50: 72 h treatment, CCK-8; for inhibitory activity against the MM.1S cell line (in words): compared with positive (+)-JQ1
Method: The MM.1S cell line was tested for cell viability. The test methods were as follows: human myeloma cells MM.1S were treated with compound for 72 h, and the proliferation inhibition effect and degree of the compound were detected by CCK-8 method.

## Cc1ccc(-n2nnnc2-c2ccc3c(c2)N(C2CCCC2)C(C)C(=O)N3C)cc1 (stereo not drawn) [Example 4]
BRD4 (I)
  IC50: 18.4 nM

## C[C@@H]1C(=O)N(C)c2ccc(-c3nc(C(=O)N4CCN(C)CC4)nn3-c3ccccc3)cc2N1C1CCCC1 [Example 7]
BRD4 (I)
  IC50: 7.6 nM

## Cc1ccc(-n2nc(C(=O)N3CCN(C)CC3)nc2-c2ccc3c(c2)N(C2CCCC2)[C@H](C)C(=O)N3C)c(C)c1 [Example 9]
[1]; Homo sapiens, MM1.S
  IC50: 23 ± 7.42 nM
BRD4 (I)
  IC50: 8.2 nM

## CCN1CCN(C(=O)c2nc(-c3ccc4c(c3)N(C3CCCC3)[C@H](C)C(=O)N4C)n(-c3ccc(C)cc3)n2)CC1 [Example 10]
[1]; Homo sapiens, MM1.S
  IC50: 25.8 ± 0.52 nM
BRD4 (I)
  IC50: 4.96 nM

## Cc1ccc(-n2nc(C(=O)N3CCN(C4CC4)CC3)nc2-c2ccc3c(c2)N(C2CCCC2)[C@H](C)C(=O)N3C)cc1 [Example 11]
BRD4 (I)
  IC50: 5.08 nM

## Cc1ccc(-n2nc(C(=O)N(C)CCN(C)C)nc2-c2ccc3c(c2)N(C2CCCC2)[C@H](C)C(=O)N3C)cc1 [Example 13]
[1]; Homo sapiens, MM1.S
  IC50: 22.4 ± 1.4 nM
BRD4 (I)
  IC50: 8.3 nM

## Cc1ccc(-n2nc(C(=O)N3CC4CCC(C3)N4C)nc2-c2ccc3c(c2)N(C2CCCC2)[C@H](C)C(=O)N3C)cc1 [Example 14]
[1]; Homo sapiens, MM1.S
  IC50: 10.7 ± 1.71 nM
[1]
  inhibitory activity against the MM.1S cell line (in words): better inhibitory activity against the MM.1S cell line than the positive (+)-JQ1
BRD4 (I)
  IC50: 4.5 nM

## Cc1ccc(-n2nc(C(=O)N3CCN(C(C)C)CC3)nc2-c2ccc3c(c2)N(C2CCCC2)[C@H](C)C(=O)N3C)cc1 [Example 15]
BRD4 (I)
  IC50: 4.2 nM

## Cc1ccc(-n2nc(C(=O)N3CCN(C)CC3)nc2-c2ccc3c(c2)N(C2CCCC2)[C@H](C)C(=O)N3C)cc1F [Example 16]
[1]; Homo sapiens, MM1.S
  IC50: 29.4 ± 9.3 nM
BRD4 (I)
  IC50: 4.06 nM

## Cc1ccc(-n2nc(C(=O)N3C4CCC3CN(C)C4)nc2-c2ccc3c(c2)N(C2CCCC2)[C@H](C)C(=O)N3C)cc1 [Example 18]
[1]; Homo sapiens, MM1.S
  IC50: 10.22 ± 0.02 nM
[1]
  inhibitory activity against the MM.1S cell line (in words): better inhibitory activity against the MM.1S cell line than the positive (+)-JQ1
BRD4 (I)
  IC50: 6.5 nM

## Cc1ccc(-n2nc(C(=O)N3CCCN(C)CC3)nc2-c2ccc3c(c2)N(C2CCCC2)[C@H](C)C(=O)N3C)cc1 [Example 19]
BRD4 (I)
  IC50: 4.6 nM

## Cc1ccc(-n2nc(C(=O)N3CCC4(CCCC4)CC3)nc2-c2ccc3c(c2)N(C2CCCC2)[C@H](C)C(=O)N3C)cc1 [Example 20]
BRD4 (I)
  IC50: 25.4 nM

## Cc1ccc(-n2nc(C(=O)N3CCC4(CCOC4)CC3)nc2-c2ccc3c(c2)N(C2CCCC2)[C@H](C)C(=O)N3C)cc1 [Example 21]
BRD4 (I)
  IC50: 7.1 nM

## Cc1ccc(-n2nc(C(=O)N3CCN4CCCC4C3)nc2-c2ccc3c(c2)N(C2CCCC2)[C@H](C)C(=O)N3C)cc1 (stereo partly drawn) [Example 22]
BRD4 (I)
  IC50: 8.1 nM

## Cc1ccc(-n2nc(C(=O)N3C[C@@H](NC(=O)OC(C)(C)C)C4(CC4)C3)nc2-c2ccc3c(c2)N(C2CCCC2)[C@H](C)C(=O)N3C)cc1 [Example 23]
BRD4 (I)
  IC50: 9.2 nM

## Cc1ccc(-n2nc(C(=O)N3C[C@@H](N)C4(CC4)C3)nc2-c2ccc3c(c2)N(C2CCCC2)[C@H](C)C(=O)N3C)cc1 [Example 24]
BRD4 (I)
  IC50: 5.3 nM

## Cc1ccc(-n2nc(C(=O)N3C4CCC3CN(C)C4)cc2-c2ccc3c(c2)N(C2CCCC2)[C@H](C)C(=O)N3C)cc1 [Example 28]
BRD4 (I)
  IC50: 6.7 nM

## Cc1ccc(-n2nc(C(=O)N3CC4CCC(C3)N4C)cc2-c2ccc3c(c2)N(C2CCCC2)[C@H](C)C(=O)N3C)cc1 [Example 29]
BRD4 (I)
  IC50: 7.7 nM

## Cc1ccc(-n2c(C)nnc2-c2ccc3c(c2)N(C2CCCC2)[C@H](C)C(=O)N3C)cc1 [Example 32]
BRD4 (I)
  IC50: 5.1 nM

## Cc1ccc(-n2nc(C(=O)N3CCN(C)CC3)nc2-c2ccc3c(c2)N(C2CC2)C(C)C(=O)N3C)c(C)c1 (stereo not drawn) [Example 34]
[1]; Homo sapiens, MM1.S
  IC50: 9.11 ± 2.91 nM
[1]
  inhibitory activity against the MM.1S cell line (in words): better inhibitory activity against the MM.1S cell line than the positive (+)-JQ1
BRD4 (I)
  IC50: 13.9 nM

## CCN1CCN(C(=O)c2nc(-c3ccc4c(c3)N(C3CC3)C(C)C(=O)N4C)n(-c3ccc(C)cc3C)n2)CC1 (stereo not drawn) [Example 35]
[1]; Homo sapiens, MM1.S
  IC50: 15.5 ± 7.42 nM
[1]
  inhibitory activity against the MM.1S cell line (in words): better inhibitory activity against the MM.1S cell line than the positive (+)-JQ1
BRD4 (I)
  IC50: 14.5 nM

## Cc1ccc(-n2nc(C(=O)N3C[C@@H](C)N[C@@H](C)C3)nc2-c2ccc3c(c2)N(C2CC2)C(C)C(=O)N3C)cc1 (stereo partly drawn) [Example 36]
[1]; Homo sapiens, MM1.S
  IC50: 3.13 nM
[1]
  inhibitory activity against the MM.1S cell line (in words): better inhibitory activity against the MM.1S cell line than the positive (+)-JQ1
BRD4 (I)
  IC50: 18.5 nM

## Cc1ccc(-n2nc(C(=O)N3C[C@@H](C)N[C@@H](C)C3)nc2-c2ccc3c(c2)N(C(C)C)[C@H](C)C(=O)N3C)cc1 [Example 37]
[1]; Homo sapiens, MM1.S
  IC50: 18.2 nM
[1]
  inhibitory activity against the MM.1S cell line (in words): better inhibitory activity against the MM.1S cell line than the positive (+)-JQ1
BRD4 (I)
  IC50: 15.1 nM

## Cc1ccc(-n2nc(C(=O)N3C[C@@H](C)N[C@@H](C)C3)nc2-c2ccc3c(c2)N(C2COC2)[C@H](C)C(=O)N3C)cc1 [Example 38]
BRD4 (I)
  IC50: 13.6 nM

## Cc1ccc(-n2nc(C(=O)N3C[C@@H](C)N[C@@H](C)C3)nc2-c2ccc3c(c2)N(C2CCOCC2)[C@H](C)C(=O)N3C)cc1 [Example 39]
BRD4 (I)
  IC50: 10.3 nM

## Cc1ccc(-n2nc(C(=O)N3C[C@@H](C)N[C@@H](C)C3)nc2-c2ccc3c(c2)N(C2CCC(F)(F)CC2)[C@H](C)C(=O)N3C)cc1 [Example 40]
BRD4 (I)
  IC50: 16 nM

## Cc1ccc(-n2nc(C(=O)N3C[C@@H](C)N[C@@H](C)C3)nc2-c2ccc3c(c2)N(C2CC(F)(F)C2)[C@H](C)C(=O)N3C)cc1 [Example 41]
BRD4 (I)
  IC50: 20.1 nM

## Cc1ccc(-n2nc(CN3C[C@@H](C)N[C@@H](C)C3)nc2-c2ccc3c(c2)N(C2CCCC2)[C@H](C)C(=O)N3C)cc1 [Example 47]
BRD4 (I)
  IC50: 6.7 nM

## (+)-JQ1 [reference compound]
[1]
  IC50: 19.3 ± 9.3 nM

— patent US11078188B2, “Dihydroquinoxaline bromodomain recognition protein inhibitor, preparation method and use thereof” (SHANGHAI INSTITUTE OF MATERIA MEDICA, CHINESE ACADEMY OF …, priority 2017, dated 2021)
